A short description of one data set: physchem. Conditions: pH 7.4.
Data set [1] relates to C57BL/6 mice. The data set can be described thus: Triad assessment: body temperature. Conditions: 0.1, 1, 3, or 10 mg/kg (i.p.); 15 min; vs vehicle.
The subject of data set [2] is C57BL/6 mice. The data set can be described thus: Triad assessment: catalepsy. Conditions: 0.1, 1, 3, or 10 mg/kg (i.p.); 5 min; vs vehicle.
The subject of data set [3] is autaptic hippocampal neurons. Put plainly: Electrophysiology in autaptic hippocampal neurons. Conditions: after 9j treatment.
The test system of data set [4] is ocular hypertensive NEE mice. Put plainly: Intraocular pressure in ocular hypertensive NEE mice. Conditions: topical 0.2% 9j alone.
Data set [5] concerns the target T1, hCB1R (Homo sapiens, UniProt P21554). The data set can be described thus: DiscoveRx PathHunter βarrestin2 recruitment assay. Conditions: for concentrations promoting CP55,940-dependent βarrestin2 recruitment: 100 nM CP55,940, 90 min.
Data set [6] has as its target T1, hCB1R. The data set can be described thus: DiscoveRx HitHunter cAMP inhibition assay. Conditions: for PAM bias between cAMP inhibition and βarrestin2 recruitment (ΔΔLogR): 100 nM CP55,940 as agonist; for PAM bias between cAMP inhibition and βarrestin2 recruitment (ΔΔLogR) / agonist bias between cAMP inhibition and βarrestin2 recruitment (ΔΔLogR): 90 min, operational model; for agonist bias between cAMP inhibition and βarrestin2 recruitment (ΔΔLogR): GAT compound alone.

The target in a further data set is GFP-rCB1R (Rattus norvegicus, UniProt P20272). The data set can be described thus: cAMP inhibition. In kind it is cell-based. Conditions: for ΔEC50 / ΔEMax: difference between CP55,940 alone and maximal concentration of GAT compound.
Chain of GFP-rCB1R (P20272 whole entry): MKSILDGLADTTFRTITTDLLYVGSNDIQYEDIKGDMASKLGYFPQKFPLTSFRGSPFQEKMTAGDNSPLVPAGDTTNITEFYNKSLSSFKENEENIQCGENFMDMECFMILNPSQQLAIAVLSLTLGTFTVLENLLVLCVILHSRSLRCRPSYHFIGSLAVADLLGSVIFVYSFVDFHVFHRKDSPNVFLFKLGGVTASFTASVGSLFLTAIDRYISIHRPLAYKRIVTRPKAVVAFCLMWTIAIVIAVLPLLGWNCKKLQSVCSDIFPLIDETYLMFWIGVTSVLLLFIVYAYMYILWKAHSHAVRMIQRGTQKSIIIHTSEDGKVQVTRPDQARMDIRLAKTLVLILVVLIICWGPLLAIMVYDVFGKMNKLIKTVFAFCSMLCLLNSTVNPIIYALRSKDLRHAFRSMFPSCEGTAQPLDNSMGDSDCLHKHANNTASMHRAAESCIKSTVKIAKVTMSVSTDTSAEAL
For data set [7], the system named is normotensive C57Bl/6J mice. Conditions: cited from earlier work.
Data set [8] concerns CFA-induced mechanical allodynia. Conditions: same CFA model; cited from earlier work.
Data set [9] relates to C57BL/6 mice. The data set can be described thus: Triad assessment: warm water tail-flick test. Conditions: 0.1-10 mg/kg i.p.; 20 min; significant vs vehicle at 3 and 10 mg/kg.
In data set [10] the test system is CFA-induced mechanical allodynia. Put plainly: CFA-induced inflammatory nociception, mechanical allodynia. In kind it is in vivo, mouse. Conditions: for mechanical paw withdrawal threshold at 30 min post-injection: CFA-injected paw; for mechanical paw withdrawal threshold at 30 min post-injection / anti-allodynic efficacy at 4 h post injection: vs vehicle; for duration of efficacy post injection / suppression of CFA-induced mechanical allodynia in CB1KO mice: ipsilateral paw; for paw withdrawal thresholds in the contralateral paw: 0.1-30 mg/kg i.p.; for doses that elevated mechanical paw withdrawal thresholds relative to vehicle: CFA-injected (ipsilateral) paw, WT mice.

The test system of data set [11] is C57BL/6 mice. Conditions: orthosteric agonist at 10 mg/kg; cited from earlier work.
Data set [12] deals with C57BL/6 mice. Conditions: orthosteric agonist at 10 mg/kg; cited from earlier work. This is another data set of the same source.

SMILES strings stand for the structures. Values after ≈ are worked out from the molar mass of the structure shown. Where two headings read alike, the source gives them in different places.

T1 sequence (P21554 whole entry): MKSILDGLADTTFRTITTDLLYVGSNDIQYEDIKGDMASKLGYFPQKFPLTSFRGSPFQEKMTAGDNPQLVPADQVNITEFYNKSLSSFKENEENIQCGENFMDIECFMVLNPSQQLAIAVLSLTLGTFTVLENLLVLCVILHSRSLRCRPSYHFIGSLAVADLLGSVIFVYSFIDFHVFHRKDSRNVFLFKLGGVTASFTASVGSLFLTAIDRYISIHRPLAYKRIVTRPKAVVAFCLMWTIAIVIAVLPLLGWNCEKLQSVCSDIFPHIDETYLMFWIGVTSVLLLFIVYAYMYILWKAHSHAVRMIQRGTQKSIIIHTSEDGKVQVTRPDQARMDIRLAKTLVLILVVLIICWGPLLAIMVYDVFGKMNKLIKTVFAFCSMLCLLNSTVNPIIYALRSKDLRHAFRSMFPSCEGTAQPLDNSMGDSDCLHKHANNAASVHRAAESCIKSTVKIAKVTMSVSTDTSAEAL

For `O=[N+]([O-])CC(c1ccccc1)c1c(-c2ccccc2)[nH]c2cnccc12` (centres unmarked) [Compound 9h, 3-(2-Nitro-1-phenylethyl)-2-phenyl-1H-pyrrolo[2,3-c]pyridine], in the data set “physchem”, the thermodynamic solubility is 2.3 µg/mL (≈ 6.7 µM).
As for `O=[N+]([O-])CC(c1ncccc1F)c1c(-c2ccccc2)[nH]c2ccccc12` (centres unmarked) [Compound 9j, 3-(1-(3-Fluoropyridin-2-yl)-2-nitroethyl)-2-phenyl-1H-indole], the hypothermia result in the data set with C57BL/6 mice [1] is “did not produce catalepsy or hypothermia”. In the data set with C57BL/6 mice [2], the catalepsy result is reported as “did not produce catalepsy”. The DSE response result in data set [3] was “DSE was enhanced”. In addition, the “change in IOP from baseline, 1 hour” value in [4] (1 h) is reported as −2.5 ± 1 mmHg. The “change in IOP from baseline, 6 hours” value in [4] (6 h) is −3.6 ± 1 mmHg. Also, in data set [4] (12 h), the “IOP decrease at 12 hours” value was “no longer present”.
`O=[N+]([O-])CC(c1ccccc1)c1c(-c2ccccc2)[nH]c2ccncc12` (centres unmarked) [Compound 9g, 3-(2-Nitro-1-phenylethyl)-2-phenyl-1H-pyrrolo[3,2-c]pyridine] came in with a solubility (thermodynamic) in “physchem” of 8.1 µg/mL (≈ 23.6 µM).
For `O=[N+]([O-])CC(c1cccnc1)c1c(-c2ccccc2)[nH]c2ccccc12` (centres unmarked) [Compound 9b, 3-(2-Nitro-1-(pyridin-3-yl)ethyl)-2-phenyl-1H-indole], the solubility (thermodynamic) in the data set “physchem” stood at 0.4 µg/mL (≈ 1.16 µM).
With `O=[N+]([O-])CC(c1ccccc1)c1c(-c2ccccc2)[nH]c2cccnc12` (centres unmarked) [Compound 9f, 3-(2-Nitro-1-phenylethyl)-2-phenyl-1H-pyrrolo[3,2-b]pyridine], the solubility (thermodynamic) in “physchem” is 3.8 µg/mL (≈ 11.1 µM).
As to `CCCCCCC(C)(C)c1ccc([C@@H]2C[C@H](O)CC[C@H]2CCCO)c(O)c1` [CP55,940, reference compound], the “Standard agonist EMax, PathHunter βarrestin2” value at hCB1R [5] (standard agonist alone) stood at 8.0 ± 1.3 fold over baseline. Moreover, the “Standard agonist EMax, HitHunter cAMP” value on hCB1R [6] (standard agonist alone) was found to be 1.5 ± 0.07 fold over baseline. Moreover, the “CP55,940 EMax, Vehicle (0)” value at GFP-rCB1R (CP55,940 without GAT compound, upper plateau) is reported as 100 ± 6.4 % Forskolin.
Molecule `O=[N+]([O-])CC(c1ccccc1)c1c(-c2ccccc2)[nH]c2ncccc12` (centres unmarked) [Compound 9i, 3-(2-Nitro-1-phenylethyl)-2-phenyl-1H-pyrrolo[2,3-b]pyridine] came in with a thermodynamic solubility in “physchem” of 54.6 µg/mL (≈ 159 µM).
As to `Cc1c(C(=O)c2cccc3ccccc23)c2cccc3c2n1[C@H](CN1CCOCC1)CO3` [WIN], the “effect on IOP” value in data set [7] (topical 1% WIN) is “decreases IOP”; in data set [7] (topical WIN […] (subthreshold)), “does not affect IOP”.
With `O=[N+]([O-])CC(c1ccccc1)c1c(-c2ccccc2)[nH]c2ccccc12` (centres unmarked) [Compound 6d, 3-(2-Nitro-1-phenylethyl)-2-phenyl-1H-indole], in [8], the “anti-allodynic efficacy at 1.5 h” value is recorded as “present”, the “anti-allodynic efficacy at […] post injection” value is “absent” and the “time of maximal anti-allodynic efficacy post-injection” value is 30 min. Moreover, the Emax on hCB1R [6] (read-out: cAMP EMax, PAM activity, CP55,940 at EC20 + analog, 30 min, mean ± SEM) came to 110 ± 6.8%.
Take `O=[N+]([O-])CC(c1ccccc1)c1c(-c2cccnc2)[nH]c2ccccc12` (centres unmarked) [Compound 9d, 3-(2-Nitro-1-phenylethyl)-2-(pyridin-3-yl)-1H-indole]: the thermodynamic solubility in the data set “physchem” was 1.7 µg/mL (≈ 4.95 µM).
On to `O=[N+]([O-])CC(c1ccccc1F)c1c(-c2cccc(F)c2)[nH]c2cc(F)ccc12` (centres unmarked) [Compound 6r, 6-Fluoro-2-(3-fluorophenyl)-3-(1-(2-fluorophenyl)-2-nitroethyl)-1H-indole], for which, in the data set on C57BL/6 mice [1], the hypothermia entry is recorded as “did not produce catalepsy or hypothermia”. In the data set on C57BL/6 mice [2], the catalepsy entry is given as “did not produce catalepsy”. For the same molecule, on hCB1R [5], the “concentrations promoting CP55,940-dependent βarrestin2 recruitment” value is on record as at least 190 nM. In addition, on hCB1R [6], the “PAM bias between cAMP inhibition and βarrestin2 recruitment (ΔΔLogR)” value is “display bias toward cAMP inhibition”; the “agonist bias between cAMP inhibition and βarrestin2 recruitment (ΔΔLogR)” value is recorded as “agonist bias toward cAMP inhibition”. The “anti-nociceptive effect in the tail flick assay” value with C57BL/6 mice [9] is “dose-dependent anti-nociceptive effect”. In addition, at GFP-rCB1R, the ΔEC50 is -12 ± 5.7 nM and the ΔEMax was found to be 68 ± 4.3 % Forskolin. Also, in data set [10] (30 mg/kg i.p.), the “mechanical paw withdrawal threshold at 30 min post-injection” value is “increased mechanical paw withdrawal threshold”, the “duration of efficacy post injection” value is on record as “at least 2.5 h”, the “suppression of CFA-induced mechanical allodynia in CB1KO mice” value is recorded as “Neither” and the “anti-allodynic efficacy at 4 h post injection” value was “no longer present”. The “paw withdrawal thresholds in the contralateral paw” value in [10] is on record as “without altering paw withdrawal thresholds in the contralateral paw”. Also, in data set [10] (i.p.), the “dose that maximally suppressed CFA-induced inflammatory pain” value is recorded as 30 mg/kg and the “doses that elevated mechanical paw withdrawal thresholds relative to vehicle” value lay in the range of 3 to 30 mg/kg.
The molecule `O=[N+]([O-])CC(c1ccncc1)c1c(-c2ccccc2)[nH]c2ccccc12` (centres unmarked) [Compound 9c, 3-(2-Nitro-1-(pyridin-4-yl)ethyl)-2-phenyl-1H-indole] had a solubility (thermodynamic) in “physchem” of 12.6 µg/mL (≈ 36.7 µM).
With `CCCCCc1cc(O)c2c(c1)OC(C)(C)[C@@H]1CCC(C)=C[C@@H]21` [THC, Δ[9]-tetrahydrocannabinol], the catalepsy result with C57BL/6 mice [11] was “significant catalepsy”. Besides, the hypothermic effects result in the data set with C57BL/6 mice [12] was “hypothermic effects”.
In turn, `O=[N+]([O-])CC(c1ccccc1)c1c(-c2ccncc2)[nH]c2ccccc12` (centres unmarked) [Compound 9e, 3-(2-Nitro-1-phenylethyl)-2-(pyridin-4-yl)-1H-indole] showed a solubility (thermodynamic) in the data set “physchem” of 0.7 µg/mL (≈ 2.04 µM).
`O=[N+]([O-])CC(c1ccccn1)c1c(-c2ccccc2)[nH]c2ccccc12` (centres unmarked) [Compound 9a, 3-(2-Nitro-1-(pyridin-2-yl)ethyl)-2-phenyl-1H-indole] displayed a solubility (thermodynamic) at 24 h in “physchem” of 1 µg/mL (≈ 2.91 µM).
As to `O=[N+]([O-])CC(c1ccccc1F)c1c(-c2cccc(F)c2)[nH]c2c(F)cccc12` (centres unmarked) [Compound 6s, 7-Fluoro-2-(3-fluorophenyl)-3-(1-(2-fluorophenyl)-2-nitroethyl)-1H-indole], in the data set on C57BL/6 mice [1], the hypothermia result is “did not produce catalepsy or hypothermia”. For the same molecule, the catalepsy entry in the data set with C57BL/6 mice [2] is listed as “did not produce catalepsy”. Further, the “concentrations promoting CP55,940-dependent βarrestin2 recruitment” value on hCB1R [5] is at least 3500 nM. At hCB1R [6], the “PAM bias between cAMP inhibition and βarrestin2 recruitment (ΔΔLogR)” value is “display bias toward cAMP inhibition”; the “agonist bias between cAMP inhibition and βarrestin2 recruitment (ΔΔLogR)” value is listed as “agonist bias toward cAMP inhibition”. Further, in the data set on C57BL/6 mice [9], the “anti-nociceptive effect in the tail flick assay” value is on record as “dose-dependent anti-nociceptive effect”. On GFP-rCB1R, this molecule showed a ΔEC50 of -12 ± 8.0 nM and a ΔEMax of 67 ± 15 % Forskolin. In data set [10] (30 mg/kg i.p.), the “antinociceptive efficacy compared with 6r at […] post injection” value is reported as “greater antinociceptive efficacy than 6r”, the “mechanical paw withdrawal threshold at 30 min post-injection” value is “increased mechanical paw withdrawal threshold”, the “duration of efficacy post injection” value is on record as “at least 2.5 h” and the “suppression of CFA-induced mechanical allodynia in CB1KO mice” value is “Neither”. The “anti-allodynic efficacy at 4 h post injection” value in data set [10] (30 mg/kg i.p.) is “no longer present”. Besides, the “paw withdrawal thresholds in the contralateral paw” value in data set [10] was “without altering paw withdrawal thresholds in the contralateral paw”. Besides, in data set [10] (i.p.), the “doses that elevated mechanical paw withdrawal thresholds relative to vehicle” value is 3 to 30 mg/kg.

For orientation: thermodynamic solubility means solubility found after equilibrating the solid with the medium. The Emax is the size of the effect at its maximum, as opposed to the concentration needed.

The values are drawn from article PMC7077750 (Journal of medicinal chemistry, 2020).
